For experiment [1], the system named is Leishmania donovani. The experiment can be described thus: In vivo anti-leishmanial activity was determined against hamster amastigotes of Leishmania donovani. Details: concentration or dose not given beside the values. In kind it is functional.
Experiment [2] relates to Leishmania donovani. The experiment can be described thus: In vivo anti-leishmanial activity against hamster amastigotes of Leishmania donovani at a dose of 10 mg/kg for a period of 5 days. In kind it is functional, organism-based. Details: dose 10 mg/kg.

The compound `N#Cc1c(Nc2ccc(F)cc2)nc(SCc2ccccc2)nc1-c1cccnc1` came in with an Inhibition in experiment [1] of 78%.

For `COc1cccc(-c2nc3n(c(=O)c2C#N)CCCS3)c1`, the Inhibition in experiment [1] is on record as 63%.

Consider `N#Cc1c(Nc2ccccc2)nc(SCc2ccccc2)nc1-c1cccnc1`, for which the Inhibition in experiment [1] worked out at 57%.

In turn, Sodium stibogluconate displayed an inhibition in experiment [2] of 86%.

In the case of `COc1cccc(-c2nc3n(c(=O)c2C#N)CCS3)c1`, the Inhibition in experiment [1] came to 73%.

As for `N#Cc1c(O)nc(S)nc1-c1ccc(F)cc1`, the Inhibition in experiment [1] turned out to be 63%.

Compound `CCc1nc(SCc2ccc(Cl)cc2)nc(O)c1C#N` had an Inhibition in experiment [1] of 76%.

`N#Cc1c(O)nc(SCc2ccc(Cl)cc2)nc1-c1cccnc1`: in experiment [1], the Inhibition was 84%.

In experiment [1], `Cc1ccc(-c2nc(S)nc(O)c2C#N)cc1` had an Inhibition of 63%.

Regarding `N#Cc1c(O)nc(S)nc1-c1ccccc1Cl`, in experiment [1], the Inhibition was 0%.

In experiment [1], `C=CCSc1nc(O)c(C#N)c(-c2cccc(OC)c2)n1` showed an Inhibition of 80%.

With `Cc1ccc(-c2nc3n(c(=O)c2C#N)CCS3)cc1`, in experiment [1], the Inhibition amounted to 65%.

Take `CCC1NC(=S)NC(=O)C1C#N` (centres undefined): the Inhibition in experiment [1] stood at 80%.

Consider `Cc1ccc(-c2nc3n(c(=O)c2C#N)CCCS3)cc1`, for which the Inhibition in experiment [1] is reported as 62%.

In the case of `COc1cccc(-c2nc(SC)nc(Cl)c2C#N)c1`, in experiment [1], the Inhibition was found to be 30%.

In experiment [1], `C=CCSc1nc(O)c(C#N)c(-c2ccc(C)cc2)n1` displayed an Inhibition of 75%.

`Cc1cccc(-c2nc(SCc3ccccc3)nc(O)c2C#N)c1` registered an Inhibition in experiment [1] of 0%.

The compound `COc1cccc(-c2nc(SCc3ccccc3)nc(O)c2C#N)c1` had an Inhibition in experiment [1] of 0%.

Consider `COc1cccc(-c2nc(SC)n(C)c(=O)c2C#N)c1`, for which the Inhibition in experiment [1] worked out at 61%.

As for `COc1cccc(-c2nc(SCc3ccc(Cl)cc3)nc(O)c2C#N)c1`, in experiment [1], the Inhibition is on record as 85%.

Take `CSc1nc(-c2ccc(C)cc2)c(C#N)c(=O)n1C`: the Inhibition in experiment [1] was found to be 50%.

`CSc1nc(Cl)c(C#N)c(-c2ccc(C)cc2)n1` had an Inhibition in experiment [1] of 36%.

In experiment [1], `Cc1ccc(-c2nc(SCc3ccccc3)[nH]c(=O)c2C#N)cc1` showed an Inhibition of 82%.

Regarding `COc1cccc(-c2nc(S)nc(O)c2C#N)c1`, the Inhibition in experiment [1] worked out at 78%.

The term Inhibition denotes the drop in the measured response relative to a control, in per cent. A word on the inhibition: it is the change of the read-out against control, counted positive when it falls.

For the origin of these results see ChEMBL document CHEMBL1128016, “5-Cyano-2-thiouracils and their derivatives: a new class of leishmanicides” (1994).
